Results taken from patent US20030013660A1, “Dioxolane analogs for improved inter-cellular delivery” (Shire BioChem Inc., priority 2000, published 2003).

What was measured:
Assay in all cases: 3H-TdR incorporation at 72 hr (24 hr drug exposure, wash, 48 hr)
[1] = system: CCRF-CEM; type: cell-based; conditions: Homo sapiens, CCRF-CEM, read-out: IC50 in μM (3H-TdR incorporation at 72 hr) CCRF-CEM 24 h, CCRF-CEM T-cell Leukemia, 72 hr assay
Protocol: (§1) Exposition of 24 hr to drug, wash, incubated for another 48 hr (total of 72 hr assay)
(§2) (3H-Thymidine Incorporation Assay)

[2] = system: CEM/dCK-; type: cell-based; conditions: for IC50: Homo sapiens, CCRF-CEM, read-out: IC50 in μM (3H-TdR incorporation at 72 hr) CEM/dCK- 24 h, CCRF-CEM deoxycytidine kinase-deficient, 24 h drug exposure, 72 hr assay; for Factor* (Resistance Factor = Ratio of dCK- on Wild-type CCRF-CEM): ratio of IC50 CEM/dCK- to IC50 CCRF-CEM
Protocol: as §1, §2

[3] = system: MCF-7; type: cell-based, Human; conditions: Homo sapiens, MCF7, read-out: IC50 in μM (3H-TdR incorporation at 72 hr) MCF-7 24 h, MCF-7 Human Breast Carcinoma, 72 hr assay
Protocol: as §1, §2

[4] = system: H-460; type: cell-based, Human; conditions: Homo sapiens, NCI-H460, read-out: IC50 in μM (3H-TdR incorporation at 72 hr) H-460 24 h, H-460 Human Lung Carcinoma, 72 hr assay
Protocol: as §1, §2

[5] = system: SF-268; type: cell-based, Human; conditions: Homo sapiens, SF-268, read-out: IC50 in μM (3H-TdR incorporation at 72 hr) SF-268 24 h, SF-268 Human Central Nervous System Tumor; 24 h drug exposure, 72 hr assay
Protocol: as §1, §2

Row | Compound | IC50 [1] | IC50 [2] | IC50 [3] | IC50 [4] | IC50 [5] | Factor* (Resistance Factor = Ratio of dCK- on Wild-type CCRF-CEM) [2]
1 | CC(C)(CCCCCCc1ccccc1)C(=O)Nc1ccn([C@@H]2CO[C@H](CO)O2)c(=O)n1 [Compound 227, 2,2-DIMETHYL-8-PHENYL- OCTANOIC ACID [1-(2- HYDROXYMETHYL- [1,3]DIOXOLAN-4-YL)-2- OXO-1,2-DIHYDRO- PYRIMIDIN-4-YL]-AMIDE] | 0.043 µM | 22 µM | 0.012 µM | 0.84 µM | 3 µM | 512
2 | C/C(=N\c1ccn([C@@H]2CO[C@H](CO)O2)c(=O)n1)N(C)C [Compound 228, N′-[1-(2-HYDROXYMETHYL- [1,3]DIOXOLAN-4-YL)-2- OXO-1,2-DIHYDRO- PYRIMIDIN-4-YL]-N,N- DIMETHYL-ACETAMIDINE] | 0.44 µM | > 100 µM | 1.5 µM | 0.68 µM | 5.3 µM | >227
3 | CC(C)N(/C=N/c1ccn([C@@H]2CO[C@H](CO)O2)c(=O)n1)C(C)C [Compound 230, N′-[1-(2-HYDROXYMETHYL- [1,3]DIOXOLAN-4-YL)-2- OXO-1,2-DIHYDRO- PYRIMIDIN-4-YL]-N,N- DIISOPROPYL-FORMAMIDINE] | 1 µM | > 100 µM | 3.8 µM | 1.5 µM | 9.5 µM | >100
4 | Cc1ccc(C)c(OCCCC(C)(C)C(=O)Nc2ccn([C@@H]3CO[C@H](CO)O3)c(=O)n2)c1 [Compound 234, 5-(2,5-DIMETHYL- PHENOXY)-2,2-DIMETHYL- PENTANOIC ACID [1-(2- HYDROXYMETHYL- [1,3]DIOXOLAN-4-YL)-2- OXO-1,2-DIHYDRO- PYRIMIDIN-4-YL]-AMIDE] | 0.95 µM | > 100 µM | 0.1 µM | 1.5 µM | 0.1 µM | >105
5 | C[C@H]1CC[C@@](C)(C(=O)Nc2ccn([C@@H]3CO[C@H](CO)O3)c(=O)n2)C1(C)C [Compound 235, 1,2,2,3-TETRAMETHYL- CYCLOPENTANECARBOXYLIC ACID [1-(2- HYDROXYMETHYL- [1,3]DIOXOLAN-4-YL)-2- OXO-1,2-DIHYDRO- PYRIMIDIN-4-YL]-AMIDE] | 1.2 µM | 61 µM | 1.1 µM | 1.6 µM | 0.38 µM | 51
6 | CC(C)(CCCCCCc1ccccc1)C(=O)OC[C@H]1OC[C@@H](n2ccc(N)nc2=O)O1 [Compound 238, 2,2-DIMETHYL-8-PHENYL- OCTANOIC ACID 4-(4- AMINO-2-OXO-2H- PYRIMIDIN-1-YL)- [1,3]DIOXOLAN-2-YL METHYL ESTER] | 0.0025 µM | 59 µM | ≤ 0.0001 µM | 0.00045 µM | 0.025 µM | 23,600
7 | CCCCC[C@H]1CC[C@H](C(=O)OC[C@H]2OC[C@@H](n3ccc(N)nc3=O)O2)CC1 [Compound 240, 4-PENTYL- CYCLOHEXANECARBOXYLIC ACID 4-(4-AMINO-2-OXO- 2H-PYRIMIDIN-1-YL)- [1,3]DIOXOLAN-2-YL METHYL ESTER] | ≤ 0.0001 µM | 2.5 µM | ≤ 0.0001 µM | ≤ 0.0001 µM | ≤ 0.0001 µM | ≧25000
8 | O=C(Nc1ccn([C@@H]2CO[C@H](CO)O2)c(=O)n1)C(c1ccccc1)c1ccccc1 [Compound 241, N-[1-(2-HYDROXYMETHYL- [1,3]DIOXOLAN-4-YL)-2- OXO-1,2-DIHYDRO- PYRIMIDIN-4-YL]-2,2- DIPHENYL-ACETAMIDE] | 1.4 µM | ≥ 100 µM | 0.17 µM | 0.047 µM | 14 µM | ≧74
9 | CC(C)Cc1ccc([C@H](C)C(=O)Nc2ccn([C@@H]3CO[C@H](CO)O3)c(=O)n2)cc1 [Compound 242, N-[1-(2-HYDROXYMETHYL- [1,3]DIOXOLAN-4-YL)-2- OXO-1,2-DIHYDRO- PYRIMIDIN-4-YL]-2-(4- ISOBUTYL-PHENYL)- PROPIONAMIDE] | 0.23 µM | 93 µM | 0.001 µM | 0.25 µM | 1.1 µM | 404
10 | CCCCCc1ccc(OC(=O)Nc2ccn([C@@H]3CO[C@H](CO)O3)c(=O)n2)cc1 [Compound 250, [1-(2-HYDROXYMETHYL- [1,3]DIOXOLAN-4-YL)-2- OXO-1,2-DIHYDRO- […]-4-YL]- CARBAMIC ACID 4-PENTYL- PHENYL ESTER] | 0.063 µM | 31 µM | 0.16 µM | 0.17 µM | 0.17 µM | 492

More lines, main results first:

Row | IC50 [1] | IC50 [2] | IC50 [3] | IC50 [4] | IC50 [5] | Compound | Factor* (Resistance Factor = Ratio of dCK- on Wild-type CCRF-CEM) [2]
11 | 0.027 µM | 72 µM | 0.0005 µM | 0.0011 µM | 0.32 µM | CC(C)Cc1ccc([C@H](C)C(=O)OC[C@H]2OC[C@@H](n3ccc(N)nc3=O)O2)cc1 [Compound 243, 2-(4-ISOBUTYL-PHENYL)- PROPIONIC ACID 4-(4- AMINO-2-OXO-2H- PYRIMIDIN-1-YL)- [1,3]DIOXOLAN-2-YL METHYL ESTER] | 2,667
12 | < 0.0001 µM | 0.68 µM | < 0.0001 µM | < 0.0001 µM | < 0.0001 µM | CC(CCCCCCc1ccccc1)C(=O)OC[C@H]1OC[C@@H](n2ccc(N)nc2=O)O1 (stereo partly drawn) [Compound 245, 2-METHYL-8-PHENYL- OCTANOIC ACID 4-(4- AMINO-2-OXO-2H- PYRIMIDIN-1-YL)- [1,3]DIOXOLAN-2-YL METHYL ESTER] | >6800
13 | 25 µM | > 100 µM | 1.4 µM | 47 µM | 28 µM | Nc1ccn([C@@H]2CO[C@H](COC(=O)N(c3ccccc3)c3ccccc3)O2)c(=O)n1 [Compound 246, DIPHENYL-CARBAMIC ACID 4-(4-AMINO-2-OXO-2H- PYRIMIDIN-1-YL)- [1,3]DIOXOLAN-2-YL METHYL ESTER] | >4
14 | 3.9 µM | > 100 µM | 0.78 µM | 8.6 µM | 8.4 µM | CC(C)C(C(=O)Nc1ccn([C@@H]2CO[C@H](CO)O2)c(=O)n1)c1ccccc1 (stereo partly drawn) [Compound 249, #N!-[1-(2- HYDROXYMETHYL- [1,3]DIOXOLAN-4-YL)-2- OXO-1,2-DIHYDRO- PYRIMIDIN-4-YL]-3- METHYL-2-PHENYL- BUTYRAMIDE] | >25
15 | 0.098 µM | 31 µM | 0.18 µM | 0.17 µM | 0.29 µM | CC(C)C[C@H](NC(=O)OCc1ccccc1)C(=O)Nc1ccn([C@@H]2CO[C@H](CO)O2)c(=O)n1 [Compound 254, {1-[1-(2-HYDROXYMETHYL- [1,3]DIOXOLAN-4-YL)-2- OXO-1,2-DIHYDRO- PYRIMIDIN-4-YL CARBAMOYL]-3-METHYL- BUTYL}-CARBAMIC ACID BENZYL ESTER] | 316
16 | 5.3 µM | 20 µM | 5.1 µM | 4.6 µM | 14 µM | CC(C)(C)C(CCCCCCc1ccccc1)C(=O)OC[C@H]1OC[C@@H](n2ccc(N)nc2=O)O1 (stereo partly drawn) [Compound 256, 2-tert-Butyl-8-phenyl-octanoic acid 4-(4-amino-2-oxo-2H-pyrimidin-1-yl)-[1,3]dioxolan-2-yl methyl ester] | 4
